Target: T1, human dopamine transporter (hDAT) (Homo sapiens, UniProt Q01959)
T1 construct: gene SLC6A3
T1 sequence (Q01959 whole entry): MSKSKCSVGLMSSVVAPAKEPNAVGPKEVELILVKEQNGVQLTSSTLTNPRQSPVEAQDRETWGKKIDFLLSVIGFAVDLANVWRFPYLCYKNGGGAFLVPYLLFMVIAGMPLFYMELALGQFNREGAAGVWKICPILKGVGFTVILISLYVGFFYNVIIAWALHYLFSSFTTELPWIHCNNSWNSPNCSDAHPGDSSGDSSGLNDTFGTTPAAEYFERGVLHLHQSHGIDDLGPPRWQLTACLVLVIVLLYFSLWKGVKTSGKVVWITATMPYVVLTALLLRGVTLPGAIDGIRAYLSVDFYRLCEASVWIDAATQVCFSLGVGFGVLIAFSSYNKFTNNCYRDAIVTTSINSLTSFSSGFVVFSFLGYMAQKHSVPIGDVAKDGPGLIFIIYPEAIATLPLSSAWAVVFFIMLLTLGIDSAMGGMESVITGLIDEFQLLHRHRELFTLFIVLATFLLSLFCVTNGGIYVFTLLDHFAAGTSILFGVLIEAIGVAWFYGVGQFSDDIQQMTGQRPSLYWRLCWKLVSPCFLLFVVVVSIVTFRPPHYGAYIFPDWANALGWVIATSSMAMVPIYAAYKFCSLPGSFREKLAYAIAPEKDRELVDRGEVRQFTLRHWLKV

NCCc1ccc(O)c(O)c1 [DA, dopamine]
3H-dopamine uptake kinetics (Km, Vmax) in PAE cells stably expressing hDAT: Michaelis–Menten non-linear regression analysis was performed, providing transporter dopamine affinity (Km) and capacity (Vmax) for each condition
